In the experiment the target is human P2X3 receptor (Homo sapiens (Human), UniProt P56373). In words: Evaluation of human P2X3 receptor inhibitory activity (Test Example 1-1, FDSS 3000, 96-well, 50 nM ATP). Type of experiment: cell-based. The settings on record: human P2X3 receptor in C6BU-1 cells; Test Example 1-1 (compounds I-001 to I-300). Put shortly:
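C6BU-1 cells stably expressing human P2X3, loaded with 4 μM Fluo-3-AM (pH 7.5), preincubated 5 min with compound before 50 nM ATP challenge; fluorescence followed 4 min on FDSS 3000. IC50 derived from peak/baseline fluorescence ratio, no-compound as 0% and buffer-instead-of-ATP as 100% inhibition.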

This note sets out measurements from patent US9550763B2, “Heterocyclic ring and carbocyclic derivative” (Shionogi & Co., Ltd., priority 2012, dated 2017).

Sequence of human P2X3 receptor (P56373 whole entry): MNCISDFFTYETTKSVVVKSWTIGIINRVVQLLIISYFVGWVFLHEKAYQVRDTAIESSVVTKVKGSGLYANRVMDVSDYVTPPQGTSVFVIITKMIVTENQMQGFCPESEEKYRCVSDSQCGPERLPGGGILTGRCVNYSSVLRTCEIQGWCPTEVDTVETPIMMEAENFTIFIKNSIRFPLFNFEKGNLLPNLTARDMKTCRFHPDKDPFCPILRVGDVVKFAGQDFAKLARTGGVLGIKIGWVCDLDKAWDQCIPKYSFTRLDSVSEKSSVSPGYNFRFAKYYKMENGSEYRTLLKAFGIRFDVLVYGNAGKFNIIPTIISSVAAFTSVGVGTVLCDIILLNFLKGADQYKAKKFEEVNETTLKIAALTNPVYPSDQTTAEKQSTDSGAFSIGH

One may read the IC50 as the concentration that inhibits the measured activity by half. `O=c1c(NC(=O)[C@H]2C[C@@H](F)C2)c[nH]/c(=N\c2ccc(Oc3ccon3)cc2)n1Cc1ccc(Cl)cc1` [Compound I-219] came in with a 50% inhibitory concentration (IC50) of 14 nM.
The same measure for `CN(C)C(=O)c1c[nH]/c(=N\c2ccc(Oc3cccc(C(N)=O)n3)cc2)n(Cc2ccc(Cl)cc2)c1=O` [Compound I-220]: 178 nM; for `Cc1nsc(Oc2ccc(/N=c3\[nH]cc(C(=O)N(C)C)c(=O)n3Cc3ccc(Cl)cc3)cc2)n1` [Compound I-221]: 65 nM; for `CN(C)C(=O)c1c[nH]/c(=N\c2ccc(Oc3cccc(C(=O)O)n3)cc2)n(Cc2ccc(Cl)cc2)c1=O` [Compound I-222]: 47 nM.
Regarding `O=C(Nc1c[nH]/c(=N\c2ccc(Oc3ccon3)cc2)n(Cc2ccc(Cl)cc2)c1=O)c1ccno1` [Compound I-223], the midpoint of inhibition, the IC50, lay at 78 nM.
`Cc1nsc(Oc2ccc(/N=c3\[nH]cc(NC(=O)C4CCOCC4)c(=O)n3Cc3ccc(Cl)cc3)cc2)n1` [Compound I-225] came in with an IC50 of 6 nM.
For `O=C(Nc1c[nH]/c(=N\c2ccc(Oc3ccon3)cc2)n(Cc2ccc(Cl)cc2)c1=O)c1ccon1` [Compound I-226] the value was 208 nM.
For `N#Cc1cc(Oc2ccc(Nc3nc(=O)c(C(=O)NC4CCOCC4)cn3Cc3ccc(Cl)cc3)cc2)ccn1` [Compound I-227] the value was 6 nM; for `N#Cc1ccc(Oc2ccc(Nc3nc(=O)c(C(=O)NC4CCOCC4)cn3Cc3ccc(Cl)cc3)cc2)nc1` [Compound I-228], 10 nM; for `N#Cc1ccc(Oc2ccc(Nc3nc(=O)c(C(=O)NC4CCOCC4)cn3Cc3ccc(Cl)cc3)cc2)cn1` [Compound I-229], 7 nM.
`O=C(Nc1c[nH]/c(=N\c2ccc(Oc3ccon3)cc2)n(Cc2ccc(Cl)cc2)c1=O)c1cc[nH]n1` [Compound I-231] yielded a concentration for half-maximal inhibition (IC50) of 388 nM.
For `Cn1cc(C(=O)Nc2c[nH]/c(=N\c3ccc(Oc4ccon4)cc3)n(Cc3ccc(Cl)cc3)c2=O)cn1` [Compound I-233] the value was 236 nM; for `O=C(Nc1c[nH]/c(=N\c2ccc(Oc3ccon3)cc2)n(Cc2ccc(Cl)cc2)c1=O)c1cn[nH]c1` [Compound I-235], 225 nM; for `N#C/N=C(/Nc1c[nH]/c(=N\c2ccc(Oc3ccon3)cc2)n(Cc2ccc(Cl)cc2)c1=O)Oc1ccccc1` [Compound I-237], 219 nM.
The same measure for `CCOC(=O)/N=C(\NC)Nc1c[nH]/c(=N\c2ccc(Oc3ccon3)cc2)n(Cc2ccc(Cl)cc2)c1=O` [Compound I-238]: 990 nM.
The same measure for `NC(=O)c1ccc(Oc2ccc(Nc3nc(=O)c(C(=O)NC4CCOCC4)cn3Cc3ccc(Cl)cc3)cc2)nc1` [Compound I-239]: 5 nM; for `NC(=O)c1cc(Oc2ccc(Nc3nc(=O)c(C(=O)NC4CCOCC4)cn3Cc3ccc(Cl)cc3)cc2)ccn1` [Compound I-240]: 6 nM.
For `CCC(=O)N(C)C1=CN/C(=N\c2ccc(Oc3cccc(C(=O)O)n3)cc2)N(Cc2ccc(Cl)cc2)C1` [Compound I-241], the IC50 was 8 nM.
The same measure for `C/C(O)=C(/C#N)C(=O)Nc1c[nH]/c(=N\c2ccc(Oc3ccon3)cc2)n(Cc2ccc(Cl)cc2)c1=O` [Compound I-242]: 6 nM; for `CN/C(=N\C#N)Nc1c[nH]/c(=N\c2ccc(Oc3ccon3)cc2)n(Cc2ccc(Cl)cc2)c1=O` [Compound I-243]: 557 nM.
As for `COC(=O)[C@@H](C)Cn1c(=O)cc(Nc2ccc(Oc3cccc(F)c3)c(C)n2)n(Cc2ccc(Cl)cc2)c1=O` [Compound I-244], inhibition was half-maximal at 646 nM (IC50).
In the case of `Cc1nc(Nc2cc(=O)n(C[C@H](C)C(=O)O)c(=O)n2Cc2ccc(Cl)cc2)ccc1Oc1cccc(F)c1` [Compound I-245], the IC50 was found to be 58 nM.
The same measure for `CCn1c(=O)cc(Nc2ccc(Oc3cccc(C#N)c3)c(C)n2)n(Cc2ccc(Cl)cc2)c1=O` [Compound I-246]: 71 nM.
`CCCn1c(=O)cc(Nc2ccc(Oc3cccc(C#N)c3)c(C)n2)n(Cc2ccc(Cl)cc2)c1=O` [Compound I-247] had an IC50 of 96 nM.
